Reference: patent US9868772B2 (INDIANA UNIVERSITY RESEARCH AND TECHNOLOGY CORPORATION, priority 2012, dated 2018)
Numbered stars: 1 amine (or outer) side, 2 acyl side, 3 side chain; on linkers, the order of the positions; unused ones are H or OH. Square brackets hold non-standard residues; d marks the D form. Side chains are listed from the residue outwards. Peptide text beside a SMILES is read from it. * marks the point of attachment. γGlu = O=C(O)[C@H](CCC(=O)[*:2])N[*:1]; Desaminotyrosyl = O=C(CCc1ccc(O)cc1)*; Palmitoyl = CCCCCCCCCCCCCCCC(=O)*

How the values were obtained:
Experiment in all cases: cAMP induction, firefly luciferase reporter assay in HEK293 cells co-transfected with receptor
Type in all cases: cell-based
GLP-1 receptor = target: T1, GLP-1 receptor (Homo sapiens, UniProt P43220)
T1 construct: expressed in transfected cells; host or cells: HEK293
Procedure: (§1) The ability of glucagon analogs to induce cAMP was measured in a firefly luciferase-based reporter assay. […] At the end of the incubation 100 microliters of LucLite luminescence substrate reagent (Perkin-Elmer, Wellesley, Mass.) were added to each well. […] Effective 50% concentrations were calculated by using Origin software (OriginLab, Northampton, Mass.

GIP receptor = target: T2, GIP receptor (Homo sapiens, UniProt P48546)
T2 construct: expressed in transfected cells; host or cells: HEK293
T2 sequence (P48546 22-466): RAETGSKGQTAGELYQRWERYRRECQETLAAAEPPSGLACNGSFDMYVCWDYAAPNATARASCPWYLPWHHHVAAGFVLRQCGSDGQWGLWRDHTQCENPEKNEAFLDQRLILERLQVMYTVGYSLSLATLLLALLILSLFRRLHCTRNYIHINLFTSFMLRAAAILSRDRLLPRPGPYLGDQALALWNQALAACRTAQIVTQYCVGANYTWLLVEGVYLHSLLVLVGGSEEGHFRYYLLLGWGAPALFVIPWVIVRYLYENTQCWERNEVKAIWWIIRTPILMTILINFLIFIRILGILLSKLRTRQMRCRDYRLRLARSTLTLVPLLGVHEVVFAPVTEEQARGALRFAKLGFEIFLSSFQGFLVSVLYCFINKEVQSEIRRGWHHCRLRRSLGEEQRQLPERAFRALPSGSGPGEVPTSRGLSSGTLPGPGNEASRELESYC
Procedure: as §1

glucagon receptor = target: T3, glucagon receptor (Homo sapiens, UniProt P47871)
T3 construct: expressed in transfected cells; host or cells: HEK293
Procedure: as §1

[1] = Table 2, analogs of SEQ ID NO: 10
[2] = Table 1, analogs of SEQ ID NO: 37

T3 sequence (P47871 26-477): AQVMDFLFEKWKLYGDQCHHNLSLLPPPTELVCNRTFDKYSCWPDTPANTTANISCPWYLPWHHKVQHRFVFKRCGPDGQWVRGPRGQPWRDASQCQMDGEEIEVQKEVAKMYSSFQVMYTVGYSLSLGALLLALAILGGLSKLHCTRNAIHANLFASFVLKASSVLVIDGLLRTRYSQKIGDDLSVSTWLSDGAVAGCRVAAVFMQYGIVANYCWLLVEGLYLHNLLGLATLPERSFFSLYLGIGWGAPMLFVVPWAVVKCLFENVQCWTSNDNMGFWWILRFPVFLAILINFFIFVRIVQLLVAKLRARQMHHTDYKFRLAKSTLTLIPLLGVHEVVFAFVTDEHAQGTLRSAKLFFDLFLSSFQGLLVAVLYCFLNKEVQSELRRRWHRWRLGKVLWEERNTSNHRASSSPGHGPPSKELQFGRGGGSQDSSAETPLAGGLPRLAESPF
T1 sequence (P43220 24-463): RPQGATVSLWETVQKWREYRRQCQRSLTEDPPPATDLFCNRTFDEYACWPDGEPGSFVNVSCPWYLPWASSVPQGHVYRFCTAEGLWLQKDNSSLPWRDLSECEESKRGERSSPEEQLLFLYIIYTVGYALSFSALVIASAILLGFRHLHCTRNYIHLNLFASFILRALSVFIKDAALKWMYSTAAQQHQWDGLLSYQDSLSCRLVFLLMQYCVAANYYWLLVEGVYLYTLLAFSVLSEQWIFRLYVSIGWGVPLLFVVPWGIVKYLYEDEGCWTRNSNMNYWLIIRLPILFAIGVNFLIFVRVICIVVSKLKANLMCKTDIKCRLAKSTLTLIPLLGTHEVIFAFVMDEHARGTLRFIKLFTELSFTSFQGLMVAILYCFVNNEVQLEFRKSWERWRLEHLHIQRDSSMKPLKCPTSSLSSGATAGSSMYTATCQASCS

Ac-[dY]AQGTFTSDYSKYLDERAAQDFVQWLLEGGPSSGAPPPSK([γGlu-γGlu-Palmitoyl])G-NH2 [compound 149]
EC50 (GLP-1 receptor; [1]): 0.002 nM
EC50 (GIP receptor; [1]): 0.008 nM
EC50 (glucagon receptor; [1]): 0.012 nM

CCCCCCCCCCCCCCCC(=O)N[C@@H](CCC(=O)NCCCC[C@H](NC(=O)[C@H](CC(=O)O)NC(=O)[C@H](CO)NC(=O)[C@@H](NC(=O)[C@H](Cc1ccccc1)NC(=O)[C@@H](NC(=O)CNC(=O)[C@H](CCC(N)=O)NC(=O)CNC(=O)[C@H](N)Cc1c[nH]cn1)[C@@H](C)O)[C@@H](C)O)C(=O)N[C@@H](CO)C(=O)N[C@@H](CCCCN)C(=O)N[C@@H](Cc1ccc(O)cc1)C(=O)N[C@@H](CC(C)C)C(=O)N[C@@H](CC(=O)O)C(=O)N[C@@H](CCC(=O)O)C(=O)N[C@@H](CCCNC(=N)N)C(=O)N[C@@H](C)C(=O)N[C@@H](C)C(=O)N[C@@H](CCC(N)=O)C(=O)N[C@@H](CC(=O)O)C(=O)N[C@@H](Cc1ccccc1)C(=O)N[C@H](C(=O)N[C@@H](CCC(N)=O)C(=O)N[C@@H](Cc1c[nH]c2ccccc12)C(=O)N[C@@H](CC(C)C)C(=O)N[C@@H](CC(C)C)C(=O)N[C@@H](CCC(=O)O)C(=O)NCC(=O)NCC(=O)N1CCC[C@H]1C(=O)N[C@@H](CO)C(=O)N[C@@H](CO)C(=O)NCC(=O)N[C@@H](C)C(=O)N1CCC[C@H]1C(=O)N1CCC[C@H]1C(=O)N1CCC[C@H]1C(=O)N[C@@H](CO)C(N)=O)C(C)C)C(=O)O [compound 23] (H-[dH]GQGTFTSDK([γGlu-Palmitoyl])SKYLDERAAQDFVQWLLEGGPSSGAPPPS-NH2; N-terminus assumed)
EC50 (GLP-1 receptor; [2]): 0.003 nM
EC50 (GIP receptor; [2]): 0.043 nM
EC50 (glucagon receptor; [2]): 0.015 nM

CCCCCCCCCCCCCCCC(=O)N[C@@H](CCC(=O)NCCCC[C@H](NC(=O)[C@H](CC(=O)O)NC(=O)[C@H](CO)NC(=O)[C@@H](NC(=O)[C@H](Cc1ccccc1)NC(=O)[C@@H](NC(=O)CNC(=O)[C@H](CCC(N)=O)NC(=O)[C@H](C)NC(=O)[C@H](N)Cc1c[nH]cn1)[C@@H](C)O)[C@@H](C)O)C(=O)N[C@@H](CO)C(=O)N[C@@H](CCCCN)C(=O)N[C@@H](Cc1ccc(O)cc1)C(=O)N[C@@H](CC(C)C)C(=O)N[C@@H](CC(=O)O)C(=O)N[C@@H](CCC(=O)O)C(=O)N[C@@H](CCCNC(=N)N)C(=O)N[C@@H](C)C(=O)N[C@@H](C)C(=O)N[C@@H](CCC(N)=O)C(=O)N[C@@H](CC(=O)O)C(=O)N[C@@H](Cc1ccccc1)C(=O)N[C@H](C(=O)N[C@@H](CCC(N)=O)C(=O)N[C@@H](Cc1c[nH]c2ccccc12)C(=O)N[C@@H](CC(C)C)C(=O)N[C@@H](CC(C)C)C(=O)N[C@@H](CCC(=O)O)C(=O)NCC(=O)NCC(=O)N1CCC[C@H]1C(=O)N[C@@H](CO)C(=O)N[C@@H](CO)C(=O)NCC(=O)N[C@@H](C)C(=O)N1CCC[C@H]1C(=O)N1CCC[C@H]1C(=O)N1CCC[C@H]1C(=O)N[C@@H](CO)C(N)=O)C(C)C)C(=O)O [compound 16]
EC50 (GLP-1 receptor; [2]): 0.002 nM
EC50 (GIP receptor; [2]): 0.01 nM
EC50 (glucagon receptor; [2]): 0.01 nM

CCCCCCCCCCCCCCCC(=O)N[C@@H](CCC(=O)NCCCC[C@H](NC(=O)[C@H](CC(=O)O)NC(=O)[C@H](CO)NC(=O)[C@@H](NC(=O)[C@H](Cc1ccccc1)NC(=O)[C@@H](NC(=O)CNC(=O)[C@H](CCC(N)=O)NC(=O)[C@H](C)NC(=O)[C@H](Cc1ccc(O)cc1)NC(C)=O)[C@@H](C)O)[C@@H](C)O)C(=O)N[C@@H](CO)C(=O)N[C@@H](CCCCN)C(=O)N[C@@H](Cc1ccc(O)cc1)C(=O)N[C@@H](CC(C)C)C(=O)N[C@@H](CC(=O)O)C(=O)N[C@@H](CCC(=O)O)C(=O)N[C@@H](CCCNC(=N)N)C(=O)N[C@@H](C)C(=O)N[C@@H](C)C(=O)N[C@@H](CCC(N)=O)C(=O)N[C@@H](CC(=O)O)C(=O)N[C@@H](Cc1ccccc1)C(=O)N[C@H](C(=O)N[C@@H](CCC(N)=O)C(=O)N[C@@H](Cc1c[nH]c2ccccc12)C(=O)N[C@@H](CC(C)C)C(=O)N[C@@H](CC(C)C)C(=O)N[C@@H](CCC(=O)O)C(=O)NCC(=O)NCC(=O)N1CCC[C@H]1C(=O)N[C@@H](CO)C(=O)N[C@@H](CO)C(=O)NCC(=O)N[C@@H](C)C(=O)N1CCC[C@H]1C(=O)N1CCC[C@H]1C(=O)N1CCC[C@H]1C(=O)N[C@@H](CO)C(N)=O)C(C)C)C(=O)O [compound 155] (Ac-YAQGTFTSDK([γGlu-Palmitoyl])SKYLDERAAQDFVQWLLEGGPSSGAPPPS-NH2)
EC50 (GLP-1 receptor; [1]): 0.06 nM
EC50 (GIP receptor; [1]): 0.037 nM
EC50 (glucagon receptor; [1]): 0.007 nM

CCCCCCCCCCCCCCCC(=O)N[C@@H](CCC(=O)NCCCC[C@H](NC(=O)[C@H](CC(=O)O)NC(=O)[C@H](CO)NC(=O)[C@@H](NC(=O)[C@H](Cc1ccccc1)NC(=O)[C@@H](NC(=O)CNC(=O)[C@H](CCC(N)=O)NC(=O)[C@H](C)NC(=O)[C@H](Cc1cccs1)NC(C)=O)[C@@H](C)O)[C@@H](C)O)C(=O)N[C@@H](CO)C(=O)N[C@@H](CCCCN)C(=O)N[C@@H](Cc1ccc(O)cc1)C(=O)N[C@@H](CC(C)C)C(=O)N[C@@H](CC(=O)O)C(=O)N[C@@H](CCC(=O)O)C(=O)N[C@@H](CCCNC(=N)N)C(=O)N[C@@H](C)C(=O)N[C@@H](C)C(=O)N[C@@H](CCC(N)=O)C(=O)N[C@@H](CC(=O)O)C(=O)N[C@@H](Cc1ccccc1)C(=O)N[C@H](C(=O)N[C@@H](CCC(N)=O)C(=O)N[C@@H](Cc1c[nH]c2ccccc12)C(=O)N[C@@H](CC(C)C)C(=O)N[C@@H](CC(C)C)C(=O)N[C@@H](CCC(=O)O)C(=O)NCC(=O)NCC(=O)N1CCC[C@H]1C(=O)N[C@@H](CO)C(=O)N[C@@H](CO)C(=O)NCC(=O)N[C@@H](C)C(=O)N1CCC[C@H]1C(=O)N1CCC[C@H]1C(=O)N1CCC[C@H]1C(=O)N[C@@H](CO)C(N)=O)C(C)C)C(=O)O [compound 21]
EC50 (GLP-1 receptor; [2]): 0.026 nM
EC50 (GIP receptor; [2]): 0.04 nM
EC50 (glucagon receptor; [2]): 0.006 nM

CCCCCCCCCCCCCCCC(=O)N[C@@H](CCC(=O)NCCCC[C@H](NC(=O)[C@H](CC(=O)O)NC(=O)[C@H](CO)NC(=O)[C@@H](NC(=O)[C@H](Cc1ccccc1)NC(=O)[C@@H](NC(=O)CNC(=O)[C@H](CCC(=O)O)NC(=O)[C@H](C)NC(=O)CCc1ccc(O)cc1)[C@@H](C)O)[C@@H](C)O)C(=O)N[C@@H](CO)C(=O)N[C@@H](CCCCN)C(=O)N[C@@H](Cc1ccc(O)cc1)C(=O)N[C@@H](CC(C)C)C(=O)N[C@@H](CC(=O)O)C(=O)N[C@@H](CCC(=O)O)C(=O)N[C@@H](CCCNC(=N)N)C(=O)N[C@@H](C)C(=O)N[C@@H](C)C(=O)N[C@@H](CCC(N)=O)C(=O)N[C@@H](CC(=O)O)C(=O)N[C@@H](Cc1ccccc1)C(=O)N[C@H](C(=O)N[C@@H](CCC(N)=O)C(=O)N[C@@H](Cc1c[nH]c2ccccc12)C(=O)N[C@@H](CC(C)C)C(=O)N[C@@H](CC(C)C)C(=O)N[C@@H](CCC(=O)O)C(=O)NCC(=O)NCC(=O)N1CCC[C@H]1C(=O)N[C@@H](CO)C(=O)N[C@@H](CO)C(=O)NCC(=O)N[C@@H](C)C(=O)N1CCC[C@H]1C(=O)N1CCC[C@H]1C(=O)N1CCC[C@H]1C(=O)N[C@@H](CO)C(N)=O)C(C)C)C(=O)O [compound 145]
EC50 (GLP-1 receptor; [1]): 0.003 nM
EC50 (GIP receptor; [1]): 0.003 nM
EC50 (glucagon receptor; [1]): 3.73 nM

CCCCCCCCCCCCCCCC(=O)NCCCC[C@H](NC(=O)[C@H](CO)NC(=O)[C@@H]1CCCN1C(=O)[C@@H]1CCCN1C(=O)[C@@H]1CCCN1C(=O)[C@H](C)NC(=O)CNC(=O)[C@H](CO)NC(=O)[C@H](CO)NC(=O)[C@@H]1CCCN1C(=O)CNC(=O)CNC(=O)[C@H](CCC(=O)O)NC(=O)[C@H](CC(C)C)NC(=O)[C@H](CC(C)C)NC(=O)[C@H](Cc1c[nH]c2ccccc12)NC(=O)[C@H](CCC(N)=O)NC(=O)[C@@H](NC(=O)[C@H](Cc1ccccc1)NC(=O)[C@H](CC(=O)O)NC(=O)[C@H](CCC(N)=O)NC(=O)[C@H](C)NC(=O)[C@H](C)NC(=O)[C@H](CCCNC(=N)N)NC(=O)[C@H](CCC(=O)O)NC(=O)[C@H](CC(=O)O)NC(=O)[C@H](CC(C)C)NC(=O)[C@H](Cc1ccc(O)cc1)NC(=O)[C@H](CCCCN)NC(=O)[C@H](CO)NC(=O)[C@H](Cc1ccc(O)cc1)NC(=O)[C@H](CC(=O)O)NC(=O)[C@H](CO)NC(=O)[C@@H](NC(=O)[C@H](Cc1ccccc1)NC(=O)[C@@H](NC(=O)CNC(=O)[C@H](CCC(N)=O)NC(=O)[C@H](C)NC(=O)CCc1ccc(O)cc1)[C@@H](C)O)[C@@H](C)O)C(C)C)C(=O)NCC(N)=O [compound 157] (Desaminotyrosyl-AQGTFTSDYSKYLDERAAQDFVQWLLEGGPSSGAPPPSK(Palmitoyl)G-NH2)
EC50 (GLP-1 receptor; [1]): 0.013 nM
EC50 (GIP receptor; [1]): 0.059 nM
EC50 (glucagon receptor; [1]): 0.047 nM

CCCCCCCCCCCCCCCC(=O)N[C@@H](CCC(=O)NCCCC[C@H](NC(=O)[C@H](CC(=O)O)NC(=O)[C@H](CO)NC(=O)[C@@H](NC(=O)[C@H](Cc1ccccc1)NC(=O)[C@@H](NC(=O)CNC(=O)[C@H](CCC(N)=O)NC(=O)C(C)(C)NC(=O)[C@@H](N)Cc1c[nH]cn1)[C@@H](C)O)[C@@H](C)O)C(=O)N[C@@H](CO)C(=O)N[C@@H](CCCCN)C(=O)N[C@@H](Cc1ccc(O)cc1)C(=O)N[C@@H](CC(C)C)C(=O)N[C@@H](CC(=O)O)C(=O)N[C@@H](CCC(=O)O)C(=O)N[C@@H](CCCNC(=N)N)C(=O)N[C@@H](C)C(=O)N[C@@H](C)C(=O)N[C@@H](CCC(N)=O)C(=O)N[C@@H](CC(=O)O)C(=O)N[C@@H](Cc1ccccc1)C(=O)N[C@H](C(=O)N[C@@H](CCC(N)=O)C(=O)N[C@@H](Cc1c[nH]c2ccccc12)C(=O)N[C@@H](CC(C)C)C(=O)N[C@@H](CC(C)C)C(=O)N[C@@H](CC(=O)O)C(=O)NCC(=O)NCC(=O)N1CCC[C@H]1C(=O)N[C@@H](CO)C(=O)N[C@@H](CO)C(=O)NCC(=O)N[C@@H](C)C(=O)N1CCC[C@H]1C(=O)N1CCC[C@H]1C(=O)N1CCC[C@H]1C(=O)N[C@@H](CO)C(N)=O)C(C)C)C(=O)O [compound 10]
EC50 (GLP-1 receptor; [2]): 0.005 nM
EC50 (glucagon receptor; [2]): 0.005 nM
